In brackets after ≈: the same amount, converted by molar mass.
What was measured:
[1] = biological target: Acetylcholinesterase (Homo sapiens) (UniProt P22303); assay: Inhibition of AChE assessed as white zone of inhibition after 20 mins by TLC bioautography
Pseudomonas aeruginosa = assay: Antimicrobial activity against Pseudomonas aeruginosa ATCC 27853 after 24 hrs by broth dilution technique; assay type: functional
Candida albicans = assay: Antimicrobial activity against Candida albicans ATCC 90028 after 24 hrs by broth dilution technique; assay type: functional; conditions: ATCC 90028, 24 h
Staphylococcus aureus = assay: Antimicrobial activity against Staphylococcus aureus ATCC 25923 after 24 hrs by broth dilution technique; assay type: functional
[2] = Pseudomonas aeruginosa, ATCC 27853, 24 h, read-out: MIC

Sequence of Acetylcholinesterase (Homo sapiens) (P22303 whole entry): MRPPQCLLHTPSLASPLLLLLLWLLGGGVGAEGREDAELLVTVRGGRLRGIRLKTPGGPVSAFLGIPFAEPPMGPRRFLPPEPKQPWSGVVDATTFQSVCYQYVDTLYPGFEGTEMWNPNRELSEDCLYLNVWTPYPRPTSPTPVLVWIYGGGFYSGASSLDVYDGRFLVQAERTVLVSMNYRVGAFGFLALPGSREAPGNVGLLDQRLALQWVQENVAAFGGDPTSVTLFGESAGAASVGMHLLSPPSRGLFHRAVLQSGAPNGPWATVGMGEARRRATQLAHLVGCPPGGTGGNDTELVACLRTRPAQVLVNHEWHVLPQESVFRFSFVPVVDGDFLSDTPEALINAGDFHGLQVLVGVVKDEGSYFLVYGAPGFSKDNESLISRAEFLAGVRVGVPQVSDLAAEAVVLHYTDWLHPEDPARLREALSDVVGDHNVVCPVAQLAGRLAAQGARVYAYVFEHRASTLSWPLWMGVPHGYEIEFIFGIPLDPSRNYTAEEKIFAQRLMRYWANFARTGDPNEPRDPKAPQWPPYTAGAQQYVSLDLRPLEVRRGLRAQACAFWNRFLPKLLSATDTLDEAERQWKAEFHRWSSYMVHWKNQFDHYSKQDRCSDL

Compound | MIC [1] | MIC (Pseudomonas aeruginosa; [2]) [µg/mL] | MIC (Candida albicans) [µg/mL] | MIC (Staphylococcus aureus; ATCC 25923, 24 h) [µg/mL] | other results
CC/C=C/C12C3CC4C5[C@@H](C)/C(=C6/OC(=O)C(C)=C6OC)O[C@]5(O3)C1CCN42 (stereo partly drawn) | 1.3 ×10⁻² nmol | ≥ 125 | – | – | –
CNC(=O)Oc1ccc2c(c1)[C@]1(C)CCN(C)[C@@H]1N2C | 3.6 ×10⁻⁴ nmol | – | – | – | –
COC1=C(C)C(=O)O/C1=C1\O[C@@]23O[C@H]4C[C@@H]([C@H]2[C@@H]1C)N1CC[C@H]3[C@@]41CC[C@@H](C)O (mixture of isomers) | 2.5 ×10⁻¹ nmol | 62.5 | ≥ 125 | ≥ 125 | –
COC1=C(C)C(=O)O/C1=C1\O[C@@]23O[C@H]4C[C@@H]([C@H]2[C@@H]1C)N1CC[C@H]3[C@@]41CCC(C)O (mixture of isomers) | 2.5 ×10⁻² nmol | ≥ 125 | ≥ 125 | ≥ 125 | –
COC1=C(C)C(=O)O/C1=C1\O[C@@]23O[C@H]4C[C@@H]([C@H]2[C@@H]1C)N1CC[C@H]3[C@@]41/C=C/C(C)O (mixture of isomers; 1) | – | 62.5 | ≥ 125 | ≥ 125 | –
COC1=C(C)C(=O)O/C1=C1\O[C@@]23O[C@H]4C[C@@H]([C@H]2[C@@H]1C)N1CC[C@H]3[C@@]41/C=C/C(C)O (mixture of isomers; 2) [listing 1 of 2 here] | – | – | – | – | MIC (Pseudomonas aeruginosa): >=125 ug ml-1
COC1=C(C)C(=O)O/C1=C1\O[C@@]23O[C@H]4C[C@@H]([C@H]2[C@@H]1C)N1CC[C@H]3[C@@]41/C=C/C(C)O (mixture of isomers; 2) [listing 2 of 2 here] | 2.5 ×10⁻¹ nmol | – | – | – | –
COC1=C(C)C(=O)O/C1=C1\O[C@@]23O[C@H]4C[C@@H]([C@H]2[C@@H]1C)N1CC[C@H]3[C@@]41C (stereo in doubt; 3) | 2.9 ×10⁻¹ nmol | – | – | – | –
COC1=C(C)C(=O)O/C1=C1\O[C@@]23O[C@H]4C[C@@H]([C@H]2[C@@H]1C)N1CC[C@H]3[C@@]41C (stereo in doubt; 15) [METHYLSTEMOFOLINE] | – | ≥ 125 | ≥ 125 | ≥ 125 | –
C[C@@H]1[C@H](O)[C@@H](C)/C=C/C=C/C=C/C=C/C=C/C=C/C=C/[C@H](O[C@@H]2O[C@H](C)[C@@H](O)[C@H](N)[C@@H]2O)C[C@@H]2O[C@](O)(C[C@@H](O)C[C@@H](O)[C@H](O)CC[C@@H](O)C[C@@H](O)CC(=O)O[C@H]1C)C[C@H](O)[C@H]2C(=O)O [AMPHOTERICIN B] | – | – | 0.35 (≈ 0.379 µM) | – | –
GENTAMICIN | – | – | – | – | MIC (Pseudomonas aeruginosa): 1.41 µg/mL; MIC (Staphylococcus aureus): 1.41 µg/mL
